The values that follow come from PubChem BioAssay (NCI).

Several values for one entry are separate records, joined by “and”; a condition that tells them apart may be missing. Equal entries are not always repeated.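 Interpolation was linear, between the two tested concentrations surrounding the appropriate level; five concentrations were tested over 48 hours in 96-well plates. GI50 = concentration required for 50% inhibition of growth. TGI: total growth inhibition.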

Some test systems named below: HCT-15 colon; HOP-92 NSCLC; UO-31 renal; COLO 205 colon; IGROV1 ovarian; SNB-75 CNS; NCI-H522 lung; M14 melanoma; RPMI-8226 leukemia; NCI-H23 lung.
Common to all, as to assay: growth of human tumour cells (NCI), 48 h

Turning to `Cn1cc(/C=C2\C(=O)Nc3cccnc32)c2ccccc21`, the GI50 was above 17.3 µM with HCT-15 colon; 2.51 µM in the assay on HOP-92 NSCLC; 4.86 µM with UO-31 renal; 20.6 µM in the assay with COLO 205 colon; 6.82 µM in the assay with IGROV1 ovarian; above 19.6 µM in the assay on SNB-75 CNS. Besides, the GI50 was 14.7 µM with NCI-H522 lung, 9.32 µM in the assay with M14 melanoma, above 25 µM with RPMI-8226 leukemia and 10.9 µM in the assay on NCI-H23 lung. The TGI in the assay on HCT-15 colon is above 25 µM; in the assay with HOP-92 NSCLC, 24.8 µM; in the assay with UO-31 renal it was above 25 µM; in the assay on COLO 205 colon, above 25 µM; in the assay on IGROV1 ovarian, above 25 µM; with SNB-75 CNS it was above 25 µM. Further, the TGI with NCI-H522 lung, with M14 melanoma, with RPMI-8226 leukemia and with NCI-H23 lung was above 25 µM throughout.
As for `O=C(O)C1C2CC3CC2CC31` (centres undefined), the TGI with HCT-15 colon, in the assay with HOP-92 NSCLC, in the assay on UO-31 renal, in the assay with COLO 205 colon, in the assay on IGROV1 ovarian and in the assay with SNB-75 CNS was above 100 µM in each case. Also, the TGI in the assay with NCI-H522 lung, in the assay on M14 melanoma, with RPMI-8226 leukemia and in the assay with NCI-H23 lung was above 100 µM throughout.
For the molecule `NC(=NC1C2CC3CC(C2)CC1C3)Nc1ccc(I)cc1` (centres undefined), the GI50 in the assay on HCT-15 colon is 2.88 µM; in the assay on HOP-92 NSCLC, 1.6 µM; in the assay with UO-31 renal, 2.67 µM; in the assay on COLO 205 colon it was 1 µM; in the assay with IGROV1 ovarian, 3.2 µM; in the assay with SNB-75 CNS, 2.09 µM. Moreover, the GI50 in the assay with NCI-H522 lung is 2.63 µM; with M14 melanoma it was 2.08 µM; with RPMI-8226 leukemia, 2.49 µM; with NCI-H23 lung it was 2.77 µM. For the same molecule, the TGI in the assay on HCT-15 colon amounted to 10.2 µM; in the assay on HOP-92 NSCLC, 5.21 µM; with UO-31 renal, 12.8 µM; with COLO 205 colon, 2.64 µM; in the assay on IGROV1 ovarian, 13.5 µM; with SNB-75 CNS, 15.7 µM. For the same molecule, the TGI in the assay with NCI-H522 lung came out at 11.2 µM; in the assay with M14 melanoma, 5.04 µM; with RPMI-8226 leukemia, 5.72 µM; in the assay with NCI-H23 lung, 10.7 µM.
On to `CCN(CC)c1ccc(/C=N\NC(=O)c2cccc(Nc3ccnc(C(F)(F)F)c3)c2)c(O)c1`, for which the GI50 is 0.123 µM with HCT-15 colon; 1.35 µM in the assay on HOP-92 NSCLC; 0.202 µM with UO-31 renal; 0.327 µM with COLO 205 colon; 0.143 µM in the assay with IGROV1 ovarian; 0.253 µM in the assay on SNB-75 CNS. Further, the GI50 in the assay with NCI-H522 lung was 0.393 µM; in the assay on M14 melanoma it was 0.217 µM; in the assay with RPMI-8226 leukemia it was 0.152 µM; in the assay on NCI-H23 lung, 0.575 µM. In addition, the TGI in the assay with HCT-15 colon was above 100 µM; with HOP-92 NSCLC, above 100 µM; in the assay on UO-31 renal, 2.69 µM; with COLO 205 colon it was 2.58 µM; in the assay with SNB-75 CNS, 7.44 µM; in the assay with NCI-H522 lung, 15.7 µM. Besides, the TGI in the assay with M14 melanoma is 1.43 µM; in the assay on RPMI-8226 leukemia it was 2.2 µM; in the assay with NCI-H23 lung it was above 100 µM.
As for `Fc1ccc(-c2c(-c3ccncc3)n(CCN3CCOCC3)c3cccnc23)cc1`, the GI50 was above 25 µM in the assay on HCT-15 colon; 2.2 µM with HOP-92 NSCLC; above 5.79 µM in the assay with UO-31 renal; above 25 µM in the assay with COLO 205 colon; above 25 µM with IGROV1 ovarian; above 25 µM with SNB-75 CNS. Also, the GI50 in the assay on NCI-H522 lung, with M14 melanoma, with RPMI-8226 leukemia and with NCI-H23 lung was above 25 µM throughout. Also, the TGI with HCT-15 colon, with HOP-92 NSCLC, in the assay with UO-31 renal, with COLO 205 colon, in the assay with IGROV1 ovarian and with SNB-75 CNS was above 25 µM throughout. Also, the TGI in the assay with NCI-H522 lung, with M14 melanoma, in the assay on RPMI-8226 leukemia and in the assay on NCI-H23 lung was above 25 µM each time.
Consider `Cc1ccc(S(=O)(=O)ON=C2CC(c3ccccc3)N(C)C(c3ccccc3)C2)cc1` (centres undefined), for which the TGI is 34.7 µM and 44.9 µM in the assay with HCT-15 colon; 43.5 µM and 46.7 µM in the assay on HOP-92 NSCLC; 35.3 µM and 49.1 µM with UO-31 renal; 29 µM and 28.3 µM in the assay on COLO 205 colon; 62.1 µM and 56.7 µM in the assay with IGROV1 ovarian; 79.3 µM and 66.9 µM with SNB-75 CNS. The TGI in the assay with NCI-H522 lung is 27.4 µM and 25.2 µM; with M14 melanoma, 34.9 µM and 43.8 µM; in the assay on RPMI-8226 leukemia it was 48.2 µM; with NCI-H23 lung, 62.9 µM and 47.8 µM.
For `N#CCc1nc2c(s1)C(=O)c1ccccc1C2=O`, the TGI with HCT-15 colon stood at 29.9 µM; in the assay with HOP-92 NSCLC it was 34.4 µM; in the assay on UO-31 renal, 29.3 µM; with COLO 205 colon, 33.4 µM; in the assay with IGROV1 ovarian it was 17.3 µM; in the assay with SNB-75 CNS, 49.3 µM. Besides, the TGI in the assay with NCI-H522 lung came to 29.9 µM; in the assay with M14 melanoma, 28.5 µM; in the assay on RPMI-8226 leukemia it was 46.6 µM; in the assay on NCI-H23 lung, 36.4 µM.
`COC(=N)/C(=C1\OC(N)=C(c2ccc(Cl)cc2)C1=O)c1ccc(Cl)cc1`: the TGI in the assay with HCT-15 colon, with HOP-92 NSCLC, in the assay with UO-31 renal, with COLO 205 colon, with IGROV1 ovarian and in the assay on SNB-75 CNS was above 100 µM each time. Further, the TGI with NCI-H522 lung, in the assay on M14 melanoma, with RPMI-8226 leukemia and with NCI-H23 lung was above 100 µM each time.
With `COc1cc(C(N)=O)c(OC)c(OC)c1OC`, the TGI with HCT-15 colon, in the assay with HOP-92 NSCLC, in the assay with UO-31 renal, in the assay with COLO 205 colon, in the assay on IGROV1 ovarian and in the assay on SNB-75 CNS was above 100 µM in each case. Moreover, the TGI in the assay on NCI-H522 lung, with M14 melanoma, in the assay on RPMI-8226 leukemia and in the assay with NCI-H23 lung was above 100 µM in each case.
